Where two headings read alike, the source gives them in different places. Bounds are passed on as bounds.

The target of experiment [1] is Nav1.6 (Homo sapiens, UniProt Q9UQD0). Conditions: read-out: TTX IC50; cited from earlier work.
Experiment [2] concerns the target Nav1.2 (Homo sapiens, UniProt Q99250). Conditions: read-out: TTX IC50; cited from earlier work.
Experiment [3] has as its target Nav1.3 (Homo sapiens, UniProt Q9NY46). The note with it: read-out: TTX IC50; cited from earlier work.
Experiment [4] deals with Nav1.1 (Homo sapiens, UniProt P35498). Conditions: read-out: TTX IC50; cited from earlier work.
The target of experiment [5] is Nav1.8 (Homo sapiens, UniProt Q9Y5Y9). Conditions: read-out: TTX IC50; cited from earlier work.
Experiment [6] addresses Nav1.9 (Homo sapiens, UniProt Q9UI33). The note with it: read-out: TTX IC50; cited from earlier work.
Experiment [7] addresses human Nav1.7 (Homo sapiens, UniProt Q15858). In words: FLIPR or FLIPR TETRA sodium dye assay for sodium channel blocking activity. Type of experiment: cell-based.
For experiment [8], the target named is T1, hNav1.7 (Homo sapiens, UniProt Q15858). Conditions: read-out: Nav1.7 Activity (μM) EP assay Ki; affinity for the inactivated state of the channel; hNav1.7 HEK-293 cells.
T1 sequence (Q15858 1-1977 isoform Q15858-3): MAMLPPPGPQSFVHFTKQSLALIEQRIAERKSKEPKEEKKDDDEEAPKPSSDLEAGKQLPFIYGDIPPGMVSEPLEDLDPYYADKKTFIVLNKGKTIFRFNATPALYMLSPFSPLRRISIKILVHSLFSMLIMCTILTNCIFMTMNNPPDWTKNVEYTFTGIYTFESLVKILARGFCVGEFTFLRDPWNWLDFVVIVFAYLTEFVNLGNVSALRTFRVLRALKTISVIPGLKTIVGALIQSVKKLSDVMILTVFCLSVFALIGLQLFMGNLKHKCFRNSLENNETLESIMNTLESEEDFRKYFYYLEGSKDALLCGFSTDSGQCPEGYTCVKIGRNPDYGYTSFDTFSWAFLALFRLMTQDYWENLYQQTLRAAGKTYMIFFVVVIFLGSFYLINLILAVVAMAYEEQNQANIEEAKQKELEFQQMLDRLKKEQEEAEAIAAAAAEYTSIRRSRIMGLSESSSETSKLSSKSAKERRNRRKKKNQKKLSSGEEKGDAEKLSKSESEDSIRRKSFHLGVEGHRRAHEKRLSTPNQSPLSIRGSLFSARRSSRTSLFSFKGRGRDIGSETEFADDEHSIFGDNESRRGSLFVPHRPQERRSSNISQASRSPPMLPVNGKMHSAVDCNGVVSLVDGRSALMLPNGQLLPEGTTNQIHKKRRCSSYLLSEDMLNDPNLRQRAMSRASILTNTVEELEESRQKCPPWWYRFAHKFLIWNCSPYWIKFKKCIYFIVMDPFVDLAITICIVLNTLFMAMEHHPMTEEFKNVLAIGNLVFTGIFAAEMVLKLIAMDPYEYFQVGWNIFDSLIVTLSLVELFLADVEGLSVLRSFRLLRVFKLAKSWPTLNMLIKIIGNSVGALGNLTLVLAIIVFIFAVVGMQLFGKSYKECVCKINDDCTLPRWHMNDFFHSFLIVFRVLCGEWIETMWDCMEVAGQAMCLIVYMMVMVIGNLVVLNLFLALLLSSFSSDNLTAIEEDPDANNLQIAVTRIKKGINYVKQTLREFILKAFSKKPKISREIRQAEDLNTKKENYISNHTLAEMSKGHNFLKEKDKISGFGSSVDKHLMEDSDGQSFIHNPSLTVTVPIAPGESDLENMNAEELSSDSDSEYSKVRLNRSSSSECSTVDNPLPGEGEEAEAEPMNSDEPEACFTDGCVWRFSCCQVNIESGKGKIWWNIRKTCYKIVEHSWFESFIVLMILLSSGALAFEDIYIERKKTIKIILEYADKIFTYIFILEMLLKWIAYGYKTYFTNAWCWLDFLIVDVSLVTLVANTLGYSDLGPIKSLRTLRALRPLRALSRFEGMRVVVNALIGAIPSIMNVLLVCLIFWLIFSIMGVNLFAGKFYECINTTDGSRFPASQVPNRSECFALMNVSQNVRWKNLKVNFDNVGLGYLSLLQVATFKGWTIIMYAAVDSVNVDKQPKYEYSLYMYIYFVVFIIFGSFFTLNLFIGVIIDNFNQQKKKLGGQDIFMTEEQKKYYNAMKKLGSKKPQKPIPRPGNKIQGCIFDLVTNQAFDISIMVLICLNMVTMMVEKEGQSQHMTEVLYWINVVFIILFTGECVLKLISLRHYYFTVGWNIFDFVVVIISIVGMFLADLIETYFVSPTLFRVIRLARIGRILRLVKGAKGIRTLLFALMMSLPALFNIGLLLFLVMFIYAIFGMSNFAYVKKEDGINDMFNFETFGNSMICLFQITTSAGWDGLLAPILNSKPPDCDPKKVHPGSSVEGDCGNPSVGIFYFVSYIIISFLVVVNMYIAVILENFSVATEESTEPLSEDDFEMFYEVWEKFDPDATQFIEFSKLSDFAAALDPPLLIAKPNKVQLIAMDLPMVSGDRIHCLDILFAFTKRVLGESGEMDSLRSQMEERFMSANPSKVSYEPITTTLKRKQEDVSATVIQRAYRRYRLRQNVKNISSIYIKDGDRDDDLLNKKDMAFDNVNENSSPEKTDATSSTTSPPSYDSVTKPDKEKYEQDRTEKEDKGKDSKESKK
Experiment [9] deals with T1, hNav1.7. Briefly: cell-based.
The mark [10] stands for this setting: recombinant HEK293 cells expressing human Nav1.7 alpha subunit, veratridine and scorpion venom as agonists, read-out: Nav1.7 Activity (μM) FLIPR assay IC50.
The mark [11] stands for this setting: read-out: Nav1.7 Activity (μM) FLIPR assay IC50.

Chain of human Nav1.7 (Q15858 1-1977 isoform Q15858-3): as above
Chain of Nav1.3 (Q9NY46 whole entry, looked up): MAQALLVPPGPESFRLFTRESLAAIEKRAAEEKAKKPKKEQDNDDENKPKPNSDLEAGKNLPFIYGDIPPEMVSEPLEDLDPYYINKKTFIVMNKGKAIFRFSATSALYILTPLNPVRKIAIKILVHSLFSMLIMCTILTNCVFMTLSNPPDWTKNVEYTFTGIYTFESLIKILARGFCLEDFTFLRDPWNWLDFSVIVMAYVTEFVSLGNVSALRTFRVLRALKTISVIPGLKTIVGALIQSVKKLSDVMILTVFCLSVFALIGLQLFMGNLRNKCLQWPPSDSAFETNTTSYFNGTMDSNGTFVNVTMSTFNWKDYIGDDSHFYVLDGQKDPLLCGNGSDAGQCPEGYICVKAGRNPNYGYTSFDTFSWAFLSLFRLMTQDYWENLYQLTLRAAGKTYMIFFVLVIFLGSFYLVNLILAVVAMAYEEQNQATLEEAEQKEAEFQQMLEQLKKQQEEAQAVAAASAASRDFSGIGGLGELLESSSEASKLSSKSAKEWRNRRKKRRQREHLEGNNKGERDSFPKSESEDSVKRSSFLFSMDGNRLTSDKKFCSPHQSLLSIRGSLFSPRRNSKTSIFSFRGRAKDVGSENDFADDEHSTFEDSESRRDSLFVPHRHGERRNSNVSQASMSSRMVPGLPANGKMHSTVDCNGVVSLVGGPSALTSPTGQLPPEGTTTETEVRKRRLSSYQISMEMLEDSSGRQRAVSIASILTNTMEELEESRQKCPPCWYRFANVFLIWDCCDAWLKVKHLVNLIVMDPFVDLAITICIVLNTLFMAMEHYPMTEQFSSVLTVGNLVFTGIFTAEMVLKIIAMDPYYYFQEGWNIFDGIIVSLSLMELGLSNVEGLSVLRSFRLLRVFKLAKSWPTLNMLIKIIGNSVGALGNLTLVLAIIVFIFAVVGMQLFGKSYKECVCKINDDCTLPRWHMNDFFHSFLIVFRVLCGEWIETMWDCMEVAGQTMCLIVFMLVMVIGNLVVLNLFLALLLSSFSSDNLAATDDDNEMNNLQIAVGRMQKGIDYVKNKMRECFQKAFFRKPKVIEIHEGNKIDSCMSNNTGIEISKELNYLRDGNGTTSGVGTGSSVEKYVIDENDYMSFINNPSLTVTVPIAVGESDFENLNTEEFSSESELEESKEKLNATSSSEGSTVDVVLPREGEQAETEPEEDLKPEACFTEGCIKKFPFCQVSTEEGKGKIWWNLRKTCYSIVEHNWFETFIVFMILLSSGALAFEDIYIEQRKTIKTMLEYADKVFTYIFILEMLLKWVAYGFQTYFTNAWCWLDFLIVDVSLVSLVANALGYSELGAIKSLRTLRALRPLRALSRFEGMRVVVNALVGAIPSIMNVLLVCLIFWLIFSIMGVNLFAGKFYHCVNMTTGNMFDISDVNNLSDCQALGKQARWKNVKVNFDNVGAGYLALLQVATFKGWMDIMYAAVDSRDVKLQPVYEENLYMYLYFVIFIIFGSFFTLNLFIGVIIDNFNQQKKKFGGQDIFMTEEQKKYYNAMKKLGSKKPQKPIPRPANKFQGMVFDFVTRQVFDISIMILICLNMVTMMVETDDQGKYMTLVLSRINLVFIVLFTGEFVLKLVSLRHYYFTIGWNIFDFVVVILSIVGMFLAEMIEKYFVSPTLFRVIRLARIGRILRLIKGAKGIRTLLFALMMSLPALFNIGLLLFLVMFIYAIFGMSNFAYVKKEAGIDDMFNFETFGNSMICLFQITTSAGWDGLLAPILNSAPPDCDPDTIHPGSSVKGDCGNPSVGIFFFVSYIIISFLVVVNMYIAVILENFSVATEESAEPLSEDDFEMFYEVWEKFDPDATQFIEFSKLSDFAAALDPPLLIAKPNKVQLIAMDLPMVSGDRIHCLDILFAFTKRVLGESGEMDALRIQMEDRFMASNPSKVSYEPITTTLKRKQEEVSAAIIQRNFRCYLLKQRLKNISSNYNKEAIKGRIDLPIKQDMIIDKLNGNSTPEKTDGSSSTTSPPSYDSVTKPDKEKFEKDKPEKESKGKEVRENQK

As a reminder, the IC50 is the concentration that inhibits the measured activity by half. With `NC1=N[C@H](O)[C@H]2[C@H]3O[C@]4(O)O[C@@H]([C@@H](O)[C@@]2(N1)[C@@H]4O)[C@]3(O)CO` [TTX, tetrodotoxin], the IC50 in experiment [1] is 0.006 µM; in [2], 0.01 µM; in experiment [3] it was 0.015 µM; in experiment [4], 0.01 µM; in experiment [5], 50 µM; in experiment [6] it was 1 µM.
Consider `CN1Cc2cc(-c3cccc([C@H](O)CO)n3)ccc2Oc2ccc(C(F)(F)F)cc21` [Compound 44, (S)-1-(6-(10-methyl-8-(trifluoromethyl)-10,11-dihydrodibenzo[b,f][1,4]oxazepin-2-yl)pyridin-2-yl)ethane-1,2-diol], for which the IC50 in experiment [7] (setting [10]) was found to be 0.373 ± 0.047 µM.
With `NC(=O)c1cccc(-c2ccc3c(c2)CCc2cc(Cl)ccc2N3)n1` [Compound 40, 6-(8-chloro-10,11-dihydro-5H-dibenzo[b,f]azepin-2-yl)picolinamide], the IC50 in experiment [7] (setting [11]) stood at 1.96 ± 0.036 µM. For the same compound, in experiment [8], the Ki was 0.648 ± 0.123 µM.
For `CN1c2ccc(-c3cccc([C@H](O)CO)n3)cc2CCc2cc(C(F)(F)F)ccc21` [Compound 46, (S)-1-(6-(5-methyl-8-(trifluoromethyl)-10,11-dihydro-5H-dibenzo[b,f]azepin-2-yl)pyridin-2-yl)ethane-1,2-diol] the same measures were 1.08 ± 0.106 µM and 1.03 ± 0.227 µM.
As for `CCN1c2ccc(Cl)cc2CCc2cc(-c3cccc(C(N)=O)n3)ccc21` [Compound 41, 6-(8-chloro-5-ethyl-10,11-dihydro-5H-dibenzo[b,f]azepin-2-yl)picolinamide], the IC50 in experiment [7] is more than 20 µM.
For the compound `NC(=O)CN1Cc2cc(-c3cccc([C@H](O)CO)n3)ccc2Oc2ccc(C(F)(F)F)cc21` [Compound 49, (S)-2-(2-(6-(1,2-dihydroxyethyl)pyridin-2-yl)-8-(trifluoromethyl)dibenzo-[b,f][1,4]oxazepin-10(11H)-yl)acetamide], the Ki in [9] worked out at 1.8 ± 0.794 µM.
Consider `OC[C@@H](O)c1cccc(-c2ccc3c(c2)CNc2cc(C(F)(F)F)ccc2O3)n1` [Compound 43, (S)-1-(6-(8-(trifluoromethyl)-10,11-dihydrodibenzo[b,f][1,4]oxazepin-2-yl)pyridin-2-yl)ethane-1,2-diol], for which the IC50 in experiment [7] (setting [11]) came out at 2.57 ± 0.059 µM.
On to `CN1Cc2cc(-c3cccc([C@H](O)[C@@H](O)C(N)=O)n3)ccc2Oc2ccc(C(F)(F)F)cc21` [Compound 48, (2R,3S)-2,3-dihydroxy-3-(6-(10-methyl-8-(trifluoromethyl)-10,11-dihydrodibenzo[b,f][1,4]oxazepin-2-yl)pyridin-2-yl)propanamide], for which, in experiment [7] (setting [11]), the IC50 worked out at 1.05 ± 0.069 µM.
With `CC(=O)N1c2ccc(Cl)cc2CCc2cc(-c3cccc(C(N)=O)n3)ccc21` [Compound 42, 6-(5-acetyl-8-chloro-10,11-dihydro-5H-dibenzo[b,f]azepin-2-yl)picolinamide], the IC50 in experiment [7] (setting [11]) is 7.62 ± 0.797 µM. Also, the Ki in experiment [8] came out at 3.03 ± 1.26 µM.
In the case of `CN1Cc2cc(C(F)(F)F)ccc2Oc2ccc(-c3cccc([C@H](O)CO)n3)cc21` [Compound 45, (S)-1-(6-(10-methyl-2-(trifluoromethyl)-10,11-dihydrodibenzo[b,f][1,4]oxazepin-8-yl)pyridin-2-yl)ethane-1,2-diol], the IC50 in [7] (setting [11]) was 1.03 ± 0.067 µM.
For `CN1c2ccc(Cl)cc2CCc2cc(-c3cccc(C(N)=O)n3)ccc21` [Compound 39, 6-(8-chloro-5-methyl-10,11-dihydro-5H-dibenzo[b,f]azepin-2-yl)picolinamide], the IC50 in [7] (setting [11]) is 0.842 ± 0.04 µM.
In the case of `C[C@H](Nc1cc(C(N)=O)nc(-c2ccc3c(c2)CN(C)c2cc(C(F)(F)F)ccc2O3)n1)C(N)=O` [Compound 47, (S)-6-((1-amino-1-oxopropan-2-yl)amino)-2-(10-methyl-8-(trifluoromethyl)-10,11-dihydrodibenzo[b,f][1,4]oxazepin-2-yl)pyrimidine-4-carboxamide], the IC50 in [7] (setting [10]) was found to be 4.79 ± 0.628 µM.

Source of the values: patent US9695144B2, “Dibenzazepine derivatives and use thereof” (Purdue Pharma L.P., priority 2013, dated 2017).
